# Literature values in patent US12037346B2, “Amino-substituted heteroaryls for treating cancers with EGFR mutations” (Nuvalent, Inc., priority 2021, dated 2024).
# Molecular target: HER2 (Homo sapiens, UniProt P04626)
# Conditions: cited from earlier work
# Chain of HER2 (P04626 23-1255): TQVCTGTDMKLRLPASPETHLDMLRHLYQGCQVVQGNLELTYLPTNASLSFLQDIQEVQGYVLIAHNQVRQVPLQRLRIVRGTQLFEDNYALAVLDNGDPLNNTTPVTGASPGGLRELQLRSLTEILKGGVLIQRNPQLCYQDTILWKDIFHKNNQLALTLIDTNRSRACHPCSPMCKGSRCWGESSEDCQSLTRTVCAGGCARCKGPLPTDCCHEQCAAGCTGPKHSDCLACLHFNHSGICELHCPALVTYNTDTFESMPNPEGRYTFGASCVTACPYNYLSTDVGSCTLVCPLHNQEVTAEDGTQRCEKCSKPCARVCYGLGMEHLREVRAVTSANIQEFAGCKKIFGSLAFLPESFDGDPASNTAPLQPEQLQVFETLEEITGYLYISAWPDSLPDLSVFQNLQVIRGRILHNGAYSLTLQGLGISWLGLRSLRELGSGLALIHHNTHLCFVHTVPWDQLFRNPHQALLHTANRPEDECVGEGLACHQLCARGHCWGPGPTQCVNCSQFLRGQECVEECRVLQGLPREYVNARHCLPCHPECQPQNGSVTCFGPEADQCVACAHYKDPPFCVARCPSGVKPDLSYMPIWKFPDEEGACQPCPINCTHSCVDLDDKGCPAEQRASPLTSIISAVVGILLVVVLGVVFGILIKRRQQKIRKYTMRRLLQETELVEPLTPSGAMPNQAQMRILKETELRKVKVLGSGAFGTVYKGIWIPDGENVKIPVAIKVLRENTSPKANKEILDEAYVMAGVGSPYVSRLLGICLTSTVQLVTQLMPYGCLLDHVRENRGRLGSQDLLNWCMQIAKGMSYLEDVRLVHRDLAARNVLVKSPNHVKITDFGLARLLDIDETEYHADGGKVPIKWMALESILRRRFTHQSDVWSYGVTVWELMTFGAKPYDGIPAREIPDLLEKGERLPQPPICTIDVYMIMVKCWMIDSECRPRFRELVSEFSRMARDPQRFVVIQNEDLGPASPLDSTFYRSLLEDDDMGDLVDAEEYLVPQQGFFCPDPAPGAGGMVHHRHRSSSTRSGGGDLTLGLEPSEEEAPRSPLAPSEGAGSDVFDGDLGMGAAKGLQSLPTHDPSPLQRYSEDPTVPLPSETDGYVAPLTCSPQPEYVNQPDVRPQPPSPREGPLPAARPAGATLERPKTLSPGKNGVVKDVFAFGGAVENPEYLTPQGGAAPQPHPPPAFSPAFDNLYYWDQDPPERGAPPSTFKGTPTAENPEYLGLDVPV
smiles,measurement,setting,value
Cc1cc(Nc2ncnc3ccc(NC4=NC(C)(C)CO4)cc23)ccc1Oc1ccn2ncnc2c1 [Tucatinib],median progression free survival,compared to placebo (5.6 months),7.8 months
same,median overall survival,compared to placebo (17.4 months),21.9 months
same,objective response rate,compared to placebo (23%),41%
